The structures appear in SMILES notation.

The target in one test is GST-hRIPK1 (8-327) (Homo sapiens (Human), UniProt Q13546). The experiment in a line: Fluorescent Polarization Binding (FP Binding) assay, RIPK1. The note with it: 10 nM GST-hRIPK1 (8-327), 5 nM fluorescent-labeled ligand, RT, 30 min, mean of at least two independent experiments. On the procedure: Fluorescent Polarization Binding (FP Binding) assay (Berger S. B. et al. (2015) Cell Death Discovery, 1: 15009; Maki J. L. et al. (2012) Anal Biochem., 427(2): 164-174) was performed in polystyrene low volume 384-well black plate, at RT in a final volume of 10.1 μl/well using 10 nM of GST-hRIPK1 (8-327) enzyme and 5 nM of fluorescent-labeled ligand (14-(2-{[3-({2-{[4-(cyanomethyl)phenyl]amino]-6-[(5-cyclopropyl-1H-pyrazol-3-yl)amino]-4-pyrimidinyl}amino) propyl}amino}-2-oxoethyl)-16,16,18,18-tetramethyl-6,7,7a,8a,9,10,16,18-octahydrobenzo [2″,3″]indolizino[8″,7″:5′,6′]pyrano [3′,2′:3,4]pyrido[1,2-a]indo1-5-ium-2-sulfonate.
GST-hRIPK1 (8-327), sequence (Q13546 8-327): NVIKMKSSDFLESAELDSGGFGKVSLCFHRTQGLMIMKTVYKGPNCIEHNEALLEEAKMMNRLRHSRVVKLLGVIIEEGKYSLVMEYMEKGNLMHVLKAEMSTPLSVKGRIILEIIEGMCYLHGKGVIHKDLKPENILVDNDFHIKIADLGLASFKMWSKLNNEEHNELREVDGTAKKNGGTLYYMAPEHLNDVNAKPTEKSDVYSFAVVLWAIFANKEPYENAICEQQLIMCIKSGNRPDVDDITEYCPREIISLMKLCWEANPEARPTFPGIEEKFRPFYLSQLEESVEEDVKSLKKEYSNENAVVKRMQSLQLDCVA
Test compounds were serially diluted in DMSO at 100 fold final concentrations in the assay (1% DMSO final). In each well of a 384-well Plate were dispensed 0.1 μL of compound solution (or DMSO for controls) followed by 5 μL of GST-hRIPK1 (8-327) at twice the final concentrations in assay buffer (50 mM HEPES pH 7.5, 10 mM NaCl, 50 mM MgCl2, 0.02% CHAPS, 0.5 mM DTT and 0.01% Pluronic F127). For negative control the enzyme addition was replaced by assay buffer only.
After addition of 5 μL of fluorescentlabeled ligand at twice the final concentrations in assay buffer, the plate was incubated at RT for […]. At the end, the binding was measured as FP value with the Envision (PerkinElmer) plate reader using filter for an excitation λ=531 nm FP and an emission λ=595 nm FP (S & P-pol). GST-hRIPK1 (8-327) enzyme was produced via Baculovirus expression.
Test compound inhibition was expressed as percent inhibition of internal assay controls. For concentration response curves, normalized data is fit and IC50 determined using XL-fit (IDBS) for Excel. The IC50 values were averaged to determine a mean value, for a minimum of two independent experiments. Results are shown in Table 2 (RIPK1 IC50) values: +++=0.1 nM<IC50<100 nM; ++=100 nM<IC50<1 μM; +=1 μM<IC50).
For orientation: IC50 means the concentration that gives 50% inhibition. Low readings indicate inhibition by little substance, high ones a need for much substance. Compound `CC(C)(C)C(=O)N1CCOc2c(C#N)cncc2C1` [Example 175, 4-(2,2-dimethylpropanoyl)-3,5-dihydro-2H-pyrido[3,4-f][1,4]oxazepine-9-carbonitrile] returned an IC50 of 0.1 to 100 nM.

The compound `O=C(C1CCN(c2ncc(F)cn2)CC1)N1CCOc2ccccc2C1` [Example 8, 3,5-dihydro-2H-1,4-benzoxazepin-4-yl-[1-(5-fluoropyrimidin-2-yl)-4-piperidyl]methanone] showed a concentration for half-maximal inhibition (IC50) of 0.1 to 100 nM.

On to `N#Cc1cccc2c1OCCN(C(=O)C1CCN(c3ncc(F)cn3)CC1)C2` [Example 183, 4-[1-(5-fluoropyrimidin-2-yl)piperidine-4-carbonyl]-3,5-dihydro-2H-1,4-benzoxazepine-9-carbonitrile], for which the half-inhibitory concentration (IC50) was 0.1 to 100 nM.

Regarding `CC(F)(F)C(C)(C)C(=O)N1CCOc2c(F)cccc2C1` [Example 18, 3,3-difluoro-1-(9-fluoro-3,5-dihydro-2H-1,4-benzoxazepin-4-yl)-2,2-dimethyl-butan-1-one], the IC50 fell in the range of 0.1 to 100 nM.

The compound `CC1(C(=O)N2CCOc3c(C#N)cncc3C2)CCN(c2ncc(F)cn2)CC1(F)F` (stereo not shown) [Example 96, 4-[3,3-difluoro-1-(5-fluoropyrimidin-2-yl)-4-methyl-piperidine-4-carbonyl]-3,5-dihydro-2H-pyrido[3,4-f][1,4]oxazepine-9-carbonitrile] gave an IC50 of 0.1 to 100 nM.

Regarding `Cc1ccc2c(c1)CN(C(=O)C(C)(C)C(F)F)CCO2` [Example 11, 3,3-difluoro-2,2-dimethyl-1-(7-methyl-2,3-dihydrobenzo[f][1,4]oxazepin-4(5H)-yl)propan-1-one], the 50% inhibitory concentration (IC50) lay in the range of 100 to 1000 nM.

In the case of `COC1(C(=O)N2CCOc3c(C#N)cncc3C2)CCN(c2ccc(F)cn2)CC1` [Example 190, 4-[1-(5-fluoro-2-pyridyl)-4-methoxy-piperidine-4-carbonyl]-3,5-dihydro-2H-pyrido[3,4-f][1,4]oxazepine-9-carbonitrile], the IC50 was in the range of 100 to 1000 nM.

In turn, `CC(C)(CC#N)C(=O)N1CCOc2c(C#N)cncc2C1` [Example 31, 4-(3-cyano-2,2-dimethyl-propanoyl)-3,5-dihydro-2H-pyrido[3,4-f][1,4]oxazepine-9-carbonitrile] registered an IC50 of 100 to 1000 nM.

`C[C@@H]1COc2c(C#N)cncc2CN1C(=O)C1CCN(c2ncc(F)cn2)CC1` [Example 104, (3R)-4-(1-(5-fluoropyrimidin-2-yl)piperidine-4-carbonyl)-3-methyl-2,3,4,5-tetrahydropyrido[3,4-f][1,4]oxazepine-9-carbonitrile] displayed a half-inhibitory concentration (IC50) of 0.1 to 100 nM.

In turn, `CCC(C)(CC#N)C(=O)N1CCOc2c(C#N)cncc2C1` (stereo not shown) [Example 74, 4-[2-(cyanomethyl)-2-methyl-butanoyl]-3,5-dihydro-2H-pyrido[3,4-f][1,4]oxazepine-9-carbonitrile] came in with an IC50 of 0.1 to 100 nM.

In turn, `COc1cnc(Cl)nc1N1CCC(F)(C(=O)N2CCOc3c(C#N)cncc3C2)CC1` [Example 186, 4-[1-(2-chloro-5-methoxy-pyrimidin-4-yl)-4-fluoro-piperidine-4-carbonyl]-3,5-dihydro-2H-pyrido[3,4-f][1,4]oxazepine-9-carbonitrile] showed an IC50 greater than 1000 nM.

The compound `N#Cc1cncc2c1OCCN(C(=O)C1(F)CCN(c3ncc(F)c(NC4CC4)n3)CC1)C2` [Example 124, 4-[1-[4-(cyclopropylamino)-5-fluoro-pyrimidin-2-yl]-4-fluoro-piperidine-4-carbonyl]-3,5-dihydro-2H-pyrido[3,4-f][1,4]oxazepine-9-carbonitrile] returned a 50% inhibitory concentration (IC50) of 0.1 to 100 nM.

In the case of `N#Cc1cncc2c1OCCN(C(=O)C1CCN(c3nccc(OCC(F)F)n3)CC1)C2` [Example 133, 4-[1-[4-(2,2-difluoroethoxy)pyrimidin-2-yl]piperidine-4-carbonyl]-3,5-dihydro-2H-pyrido[3,4-f][1,4]oxazepine-9-carbonitrile], the half-inhibitory concentration (IC50) lay in the range of 100 to 1000 nM.

Compound `CC(C(=O)N1CCOc2c(F)cccc2C1)C(F)(F)F` (stereo not shown) [Example 17, 3,3,3-trifluoro-1-(9-fluoro-3,5-dihydro-2H-1,4-benzoxazepin-4-yl)-2-methyl-propan-1-one] displayed a 50% inhibitory concentration (IC50) greater than 1000 nM.

For `CC(C)(C(=O)N1CCOc2c(F)cccc2C1)C1CC1` [Example 15, 2-cyclopropyl-1-(9-fluoro-3,5-dihydro-2H-1,4-benzoxazepin-4-yl)-2-methyl-propan-1-one], the IC50 lay in the range of 0.1 to 100 nM.

Still in this test, the particulars now being: GST-hRIPK1 (8-327), mean of at least two independent experiments.
In the case of `CCC(C)(OC)C(=O)N1CCOc2c(C#N)cncc2C1` (single isomer, unassigned) [Example 282, 4-(2-Methoxy-2-methyl-butanoyl)-3,5-dihydro-2H-pyrido[3,4-f][1,4]oxazepine-9-carbonitrile], the 50% inhibitory concentration (IC50) lay within 100 to 1000 nM.

`COc1nc(N2CCC(C(=O)N3CCOc4c(C#N)cncc4C3)CC2)c(F)cc1F` [Example 287, 4-[1-(3,5-difluoro-6-methoxy-2-pyridyl)piperidine-4-carbonyl]-3,5-dihydro-2H-pyrido[3,4-f][1,4]oxazepine-9-carbonitrile] displayed an IC50 of 0.1 to 100 nM.

Regarding `CC(C)(C(=O)N1CCOc2c(C#N)cncc2C1)C1CCN(c2ncc(F)cn2)C1` (single isomer, unassigned) [Example 281, 4-[2-(-1-(5-Fluoropyrimidin-2-yl)pyrrolidin-3-yl)-2-methyl-propanoyl]-3,5-dihydro-2H-pyrido[3,4-f][1,4]oxazepine-9-carbonitrile], the IC50 was 0.1 to 100 nM.

In the case of `CC(F)C(C)(C)C(=O)N1CCOc2c(C#N)cncc2C1` (single isomer, unassigned) [Example 273, 4-(3-Fluoro-2,2-dimethyl-butanoyl)-3,5-dihydro-2H-pyrido[3,4-f][1,4]oxazepine-9-carbonitrile], the IC50 was 100 to 1000 nM.

`CCC(C)(C)C(=O)N1CCOc2c(F)cncc2C1` [Example 207, 1-(9-fluoro-3,5-dihydro-2H-pyrido[3,4-f][1,4]oxazepin-4-yl)-2,2-dimethyl-butan-1-one] came in with a half-maximal inhibitory concentration (IC50) of 100 to 1000 nM.

`CC(C(=O)N1CCOc2c(C#N)cncc2C1)(C(F)F)C1CC1` (single isomer, unassigned) [Example 259, 4-(2-Cyclopropyl-3,3-difluoro-2-methyl-propanoyl)-3,5-dihydro-2H-pyrido[3,4-f][1,4]oxazepine-9-carbonitrile] gave a concentration for half-maximal inhibition (IC50) of 100 to 1000 nM.

As to `N#Cc1cncc2c1OCCN(C(=O)C1CCN(c3nccn4ncnc34)CC1F)C2` (single isomer, unassigned) [Example 301, 4-[3-Fluoro-1-([1,2,4]triazolo[1,5-a]pyrazin-8-yl)piperidine-4-carbonyl]-3,5-dihydro-2H-pyrido[3,4-f][1,4]oxazepine-9-carbonitrile], the 50% inhibitory concentration (IC50) lay within 100 to 1000 nM.

`N#Cc1cncc2c1OCCN(C(=O)C1CCN(c3nccc4ncnn34)CC1(F)F)C2` (stereo not shown) [Example 246, 4-[3,3-difluoro-1-([1,2,4]triazolo[1,5-c]pyrimidin-5-yl)piperidine-4-carbonyl]-3,5-dihydro-2H-pyrido[3,4-f][1,4]oxazepine-9-carbonitrile] yielded an IC50 of 100 to 1000 nM.

Compound `CCC(C)(OC)C(=O)N1CCOc2c(C#N)cncc2C1` (single isomer, unassigned) [Example 283, 4-(-2-Methoxy-2-methyl-butanoyl)-3,5-dihydro-2H-pyrido[3,4-f][1,4]oxazepine-9-carbonitrile] returned an IC50 of 100 to 1000 nM.

The compound `N#Cc1cncc2c1OCCN(C(=O)C1CCN(c3ccnc4ccnn34)CC1)C2` [Example 205, 4-(1-pyrazolo[1,5-a]pyrimidin-7-ylpiperidine-4-carbonyl)-3,5-dihydro-2H-pyrido[3,4-f][1,4]oxazepine-9-carbonitrile] showed an IC50 of 100 to 1000 nM.

With `CC1(C(=O)N2CCOc3c(C#N)cncc3C2)CCN(c2ncc(F)cn2)CC1F` (single isomer, unassigned) [Example 300, 4-[3-Fluoro-1-(5-fluoropyrimidin-2-yl)-4-methyl-piperidine-4-carbonyl]-3,5-dihydro-2H-pyrido[3,4-f][1,4]oxazepine-9-carbonitrile], the half-maximal inhibitory concentration (IC50) lay in the range of 0.1 to 100 nM.

As to `N#Cc1cncc2c1OCCN(C(=O)C1CCN(c3ncnn4ccnc34)CC1(F)F)C2` (stereo not shown) [Example 218, 4-(3,3-difluoro-1-imidazo[2,1-f][1,2,41triazin-4-yl-piperidine-4-carbonyl)-3,5-dihydro-2H-pyrido[3,4-f][1,4]oxazepine-9-carbonitrile)], the IC50 lay in the range of 100 to 1000 nM.

Compound `CC(CF)(C(=O)N1CCOc2c(C#N)cncc2C1)C(F)F` (stereo not shown) [Example 266, 4-[3,3-Difluoro-2-(fluoromethyl)-2-methyl-propanoyl]-3,5-dihydro-2H-pyrido[3,4-f][1,4]oxazepine-9-carbonitrile] gave a half-maximal inhibitory concentration (IC50) of 100 to 1000 nM.

For the origin of these results see patent US11203600B2 (Denali Therapeutics Inc., priority 2017, dated 2021).
